Measured values published in patent publication US20110212235A1, “ANTIMICROBIAL SALT SOLUTIONS FOR CHEESE PROCESSING APPLICATIONS” (priority 2006, published 2011).

Experiments:
Type in all cases: cell-based
Pink Yeast = assay: Yeast challenge, pink yeast
Method: (§1) “Yeast” Procedure: • 1. Inoculate a separate tube containing 10 ml of Brain Heart Infusion (BHI) broth for each wild type (Raised, Rough and Flat white yeast along with a single pink yeast). Incubate for 5 days at 26° C.+/−2° C. • 2. Assume growth to be 10^7 cfu/ml. Since 4 cultures are being used, combine 2.75 ml of each culture added to 99 ml of cold Butterfield's Phosphate Buffered Water (PBW) to obtain 10^6 cfu/ml of yeast cocktail. • 3. Plate serial dilutions of the culture to get the starting count of the inoculum on Dichloran-Rose Bengal-Chloramphenicol Agar (DRBC). • 4. Add 1 ml of the diluted cocktail to 100 ml of cold test solution. • 5. Determine the population at time 0 and 4 hours. Spread plate serial dilutions to DRBC agar. • 6. Incubate the test solutions at 10° C.+/−2° C. for the duration of the experiment. • 7. Incubate the plates at 20° C.+/−2° C. for 5 days+/−2 hours. • 8. Count representative colonies and multiply by the dilution factor. Note: Each test solution should contain ˜10^4 cfu/ml.
(§2) In order to determine if the effect of the additive was repeatable, more challenge tests were run on samples of process brine. […] In this test the solutions were challenged with two distinct yeast (a white and a pink) types and coliforms from the samples sent by the cheese plant.

White Yeast = assay: Yeast challenge, white yeast
Method: as §1, §2

[1] = tested on: yeast cocktail (Raised, Rough and Flat white yeast and a pink yeast); assay: “Yeast” procedure, yeast cocktail
Source text: In the present example, cultures of various microorganisms native to actual process brines used in cheese manufacture were obtained from a cheese plant. […] Organism cultures included four different types of yeast (three distinct while yeast cultures and a pink yeast), a black mold culture, a coliform culture, a culture of mixed green mold and yeast that were not separated, and a culture that was identified by the cheese plant as heterofermentative lactic acid bacteria, although no actual identification of the strain was carried out.
as §1
(§3) The brines were treated with different concentrations of octanoic acid and then challenged with a yeast cocktail (which included the pink and 3 different white mold types), the green mold+yeast combination, and coliforms.

[2] = tested on: heterofermentative lactic acid bacteria (not identified); assay: “Lactic Bacteria” procedure in cheese brine; conditions: after 4 hours in blue cheese brine; Table 20; inoculum 1.2 × 10^7 (est)
Method: (§4) In the present example, cultures of various microorganisms native to actual process brines used in cheese manufacture were obtained from a cheese plant. The cultures of yeast, mold, and coliforms were grown and used to test the efficacy of various antimicrobial additives in blue cheese brines. Organism cultures included four different types of yeast (three distinct while yeast cultures and a pink yeast), a black mold culture, a coliform culture, a culture of mixed green mold and yeast that were not separated, and a culture that was identified by the cheese plant as heterofermentative lactic acid bacteria, although no actual identification of the strain was carried out.
“Lactic Bacteria” Procedure: • 1. Inoculate a separate tube containing 10 ml of Brain Heart Infusion (BHI) broth for each wild type tactics 1 and 2. Incubate for 72+/−2 hours at 30° C.+/−2° C. • 2. Assume growth to be 10^9 cfu/ml. Since two cultures are being used, combine 5.5 ml of each culture added to 99 ml of cold Butterfield's Phosphate Buffered Water (PBW) to obtain 10^8 cfu/ml. • 3. Plate serial dilutions of the culture to get the starting count of the inoculum on Lactobacilli MRS Agar (MRSA). • 4. Add 1 ml of the diluted cocktail to 100 ml of cold test solution. • 5. Determine the population at time 0 and 4 hours. Plate serial dilutions using MRSA spread plates. • 6. Incubate the test solutions at 10° C.+/−2° C. for the duration of the experiment. • 7. Incubate the plates at 30° C.+/−2° C. for 72+/−2 hours. • 8. Count representative colonies and multiply by the dilution factor. Note: Each test solution should contain ˜10^8 cfu/ml.
In this experiment solutions were challenged with cultures of the black mold, the green mold/yeast combination, and the bacteria thought to be “lactic acid” bacteria. In this experiment, a brine control with no additive was neglected, but the data still indicate the strong effectiveness of the octanoic acid against yeast and mold.

black mold = assay: “Mold” procedure, black mold; conditions: after 4 hours in blue cheese brine; Table 20; inoculum 2.5 × 10^4 (est)
Method: as §4
(§5) “Mold” Procedure: • 1. From refrigerated stock mold cultures, take 1 ml from black mold dilution bottle added to 99 ml of cold Butterfield's Phosphate Buffered Water (PBW) to obtain 10^5 cfu/ml. • 2. Take 1 ml from green mold/white yeast mixture dilution bottle added to 99 ml of cold Butterfield's Phosphate Buffered Water (PBW) to obtain 10^6 cfu/ml. • 3. Plate serial dilutions of the cultures to get the starting count of the inoculum on Dichloran-Rose Bengal-Chloramphenicol Agar (DRBC). • 4. Add 1 ml of the diluted mold culture to 100 ml of cold test solution (do separately for each of the two mold cultures). • 5. Determine the population at time 0 and 4 hours. Spread plate serial dilutions to DRBC agar. • 6. Incubate the test solutions at 10° C.+/−2° C. for the duration of the experiment. • 7. Incubate the plates at 20° C.+/−2° C. for 5 days+/−2 hours. • 8. Count representative colonies and multiply by the dilution factor. Note: For black mold, each test solution should contain ˜10^3 cfu/ml. For green mold/white yeast mixture, each test solution should contain ˜10^4 cfu/ml.

[3] = tested on: wild type coliforms from cheese plant brine; assay: Coliforms procedure in cheese brine or buffered solution; conditions: for Coliforms count: Table 21 (sodium octanoate experiment)
Method: as §4
Coliforms Procedure: • 1. Inoculate a separate tube containing 10 ml of Brain Heart Infusion (BHI) broth for each wild type coliforms 1 and 2. Incubate for 24+/−2 hours at 35° C.+/−2° C. • 2. Assume growth to be 10^9 cfu/ml. Since two cultures are being used, combine 5.5 ml of each culture added to 99 ml of cold Butterfield's Phosphate Buffered Water (PBW) to obtain 10^8 cfu/ml. • 3. Plate serial ten-fold dilutions of the culture to get the starting count of the inoculum on Violet Red Bile Agar (VRBA). • 4. Add 1 ml of the diluted cocktail to 100 ml of cold test solution. • 5. Determine the population at time 0 and 4 hours by plating serial dilutions to VRBA spread plates. • 6. Incubate the test solutions at 10° C.+/−2° C. for the duration of the experiment. • 7. Incubate the plates at 20° C.+/−2° C. for 72+/−2 hours. • 8. Count representative colonies and multiply by the dilution factor. Note: Each test solution should contain ˜10^8 cfu/ml.
as §3

[4] = tested on: wild type coliforms from cheese plant brine; assay: as above; conditions: after 4 hours in mozzarella cheese brine
[5] = tested on: green mold/white yeast mixture; assay: “Mold” procedure, green mold/white yeast mixture; conditions: for Green Mold + Yeast count: after 4 hours in blue cheese brine, Table 20, inoculum 5.8 × 10^6 (est)
Method: as §4, §5
Screening tests identified octanoic acid as a promising antimicrobial additive for salt brines. Table 16 gives results of a challenge test run on actual blue cheese and mozzarella process brine samples sent from a cheese plant. The brines were treated with different concentrations of octanoic acid and then challenged with a yeast cocktail (which included the pink and 3 different white mold types), the green mold+yeast combination, and coliforms. […] The plate counts listed parenthetically as (est) were too numerous to count and were estimated.

[6] = tested on: Uncharacterized microorganisms cultured from raw ground beef; assay: Total plate count challenge of 24% NaCl brine with ground beef organisms; conditions: after 4 hours in 24% NaCl brine at −5° C.
Method: Tests were run to determine the effectiveness of formulas against organisms other than L. monocytogenes. […] The test solutions were inoculated with the ground beef organism culture and incubated for 4 hours at −5° C. before plating.

[7] = after 4 hours in blue cheese brine, Table 18
[8] = after 4 hours in blue cheese brine, Table 21 (sodium octanoate experiment)
[9] = after 4 hours in mozzarella cheese brine, Table 19
[10] = after 4 hours at 10° C. in blue cheese brine, Table 16
[11] = after 4 hours in mozzarella cheese brine, Table 17
[12] = after 4 hours in blue cheese brine
[13] = Table 17, (est) = too numerous to count, estimated

Compound | Pink Yeast count (Pink Yeast; [7]) | Pink Yeast count (Pink Yeast; [8]) | Pink Yeast count (Pink Yeast; [9]) | White Yeast count (White Yeast; [7]) | White Yeast count (White Yeast; [8]) | White Yeast count (White Yeast; [9]) | Yeast Cocktail count [1, 10] | Yeast Cocktail count [1, 11] | “Lactics” count [2] | Black Mold count (black mold) | Coliform count [3, 10] | Coliform count [3, 7] | Coliforms count [3, 12] | Coliform count [4, 13] | Coliform count ([4]; Table 19) | Yeast + Mold count [5, 10] | Green Mold + Yeast count [5] | Yeast + Mold count [5, 11] | Total plate count [6]
CCCCCCCC(=O)O [250 ppm octanoic acid, octanoic acid] | <10 cfu/mL | <10 cfu/mL | <10 cfu/mL | <10 cfu/mL | <10 cfu/mL | <10 cfu/mL | <10 cfu/mL | 200 cfu/mL | <10 cfu/mL | <10 cfu/mL | <10 cfu/mL | <10 cfu/mL | <10 cfu/mL | 1.7 × 10^6 cfu/mL | 3.8 × 10^3 cfu/mL | <10 cfu/mL | <10 cfu/mL | 6.1 × 10^4 cfu/mL | –
CCCCCCCC(=O)O [125 ppm octanoic acid, octanoic acid] | <10 cfu/mL | <10 cfu/mL | <10 cfu/mL | <10 cfu/mL | <10 cfu/mL | 60 cfu/mL | <10 cfu/mL | 6.0 × 10^3 cfu/mL | 2.0 × 10^3 cfu/mL | <10 cfu/mL | 10 cfu/mL | <10 cfu/mL | <10 cfu/mL | ~3.0 × 10^6 (est) cfu/mL | 1.6 × 10^4 cfu/mL | 20 cfu/mL | <10 cfu/mL | 4.1 × 10^5 cfu/mL | –
CCCCCCCC(=O)O [500 ppm octanoic acid, octanoic acid] | <10 cfu/mL | <10 cfu/mL | 20 cfu/mL | <10 cfu/mL | <10 cfu/mL | <10 cfu/mL | <10 cfu/mL | <10 cfu/mL | <1 cfu/mL | <10 cfu/mL | <10 cfu/mL | <10 cfu/mL | <10 cfu/mL | 3.5 × 10^4 cfu/mL | 3.8 × 10^3 cfu/mL | <10 cfu/mL | <10 cfu/mL | 5.6 × 10^3 cfu/mL | –
sodium linear alkylbenzene sulfonate | – | – | – | – | – | – | – | – | – | – | – | – | – | – | – | – | – | – | <10 cfu/mL
CCCCCCCC(=O)O [62.5 ppm octanoic acid, octanoic acid] | – | <10 cfu/mL | – | – | 90 cfu/mL | – | – | – | 1.5 × 10^5 cfu/mL | <10 cfu/mL | – | – | 3.8 × 10^4 cfu/mL | – | – | – | 1.0 × 10^4 cfu/mL | – | –
